The source of these data is US8101572B2, “Methods for promoting wound healing and/or reducing scar formation” (Arizona Board of Regents, A Corporate Body Organized Under …, priority 2003, dated 2012).

Non-standard residues stand in square brackets, D forms with d. No end group written: not given here. pS = N[C@@H](COP(=O)(O)O)C(=O)O

Assay [1] deals with Swiss albino 3T3 cells. Put plainly: f-actin cytoskeletal distribution (Alexa 568 phalloidin, confocal microscopy). The format is cell-based. The conditions noted are these: 30 min, 10 μM LPA, 10 μM forskolin, 25 μM FITC-pHSP20, 25 μM FITC-aHSP20. On the procedure: (§1) Unless otherwise stated, all reagents were purchased from Sigma, St. Louis, Mo. Swiss Albino 3T3 fibroblasts (ATCC, Manassas, Va.) were cultured in DMEM supplemented with 10% BCS, 4 mM L-glutamine and 50 μg/ml penicillin-streptomycin and maintained at 37° C., 5% CO2. Cells were seeded and cultured overnight. Culture media was replaced with DMEM containing 0.5% BCS 1 hour prior to experimentation. Cells were incubated with the peptide analogues or reagent (LPA or forskolin) diluted in DMEM containing 0.5% BCS, 30 minutes at 37° C. Cells were then fixed in 4% paraformnaldehyde, permeabilized in 0.25% Triton X-100, and blocked with 1% BSA solution for 1 hour. To determine f-actin cytoskeletal distribution, treated cells were incubated with Alexa 568 phalloidin (Molecular Probes, Eugene, Oreg.) in 1% BSA, 30 minutes. […] Slides were mounted and analyzed by confocal microscopy (Leica TCS SP2, Bannockburn, Ill.). […]
Swiss albino 3T3 cells were either untreated or treated with 10 μM LPA, 10 μM forskolin, 25 μM FITC-pHSP20, or 25 μM FITC-aHSP20 as described (4). Cells were fixed, stained for f-actin using Alexa 568 phalloidin, and visualized by projection images of confocal fluorescence microscopy. […]

In assay [2] the test system is motor cortex of Sprague Dawley rats. Put plainly: microwire neural electrode implant, histology for glial scarring (GFAP) and axons (MAP2). The conditions noted are these: rat motor cortex, four weeks after implant; peptide as subdural injection (0.1 cc, 100 μm p20) with dextran coated electrodes. It counts as in vivo. An excerpt:
Microwire arrays were implanted in the motor cortex of Sprague Dawley rats. Six male Sprague-Dawley rats (300-450 g) were implanted with 2×4 arrays of 50 μm tungsten wire. The electrodes were spaced 500 um apart for a total array size of approximately 1.5 mm×0.5 mm. The implant was centered +3 mm anterior and +2 mm lateral from bregmna. The craniotomy was opened slightly larger than the implant size and an injection (0.1 cc, 0.9% PBS or 100 μm p20) was made into the arachnoid space near the implant site using a 30 gauge needle. The mirowire array was held in a micromanipulator and lowered 2 mm from the surface of the dura. The craniotomy was covered with Gelfoam® and the implant and connector were cemented in place with dental acrylic. Three groups were implanted and evaluated histologically after four weeks. Group one was implanted with untreated electrodes. […] Texas Red labeled anti-Rabbit and Cy5 labeled antij-donkey secondary antibodies were used respectively for visualization.

Assay [3] has as its system 3T3 cells. In words: focal adhesion assay using interference reflection microscopy. It counts as cell-based. The conditions noted are these: cultured 3T3 cells; 100 nM Hep I, 10 μM and 25 μM peptide; FIG. 2. As to the method:
Results from the focal adhesion assay using interference reflective microscopy on 3T3 cells treated as described (4). Each condition was tested in triplicate, and an average of 250 cells per coverslip was counted. A cell was scored positive if it contained at least five focal adhesions. Hep I (peptide from thrombospondin 1) was used as a positive control. *P<0.05 compared to untreated cells.
as §1

Assay [4] relates to Swiss albino 3T3 cells. Put plainly: focal adhesion protein localization (immunostaining for α-actinin, vinculin, paxillin). It counts as cell-based. The conditions noted are these: 30 min, 10 μM forskolin, 25 μM pHSP20, 25 μM FITC-aHSP20. As to the method:
Unless otherwise stated, all reagents were purchased from Sigma, St. Louis, Mo. Swiss Albino 3T3 fibroblasts (ATCC, Manassas, Va.) were cultured in DMEM supplemented with 10% BCS, 4 mM L-glutamine and 50 μg/ml penicillin-streptomycin and maintained at 37° C., 5% CO2. Cells were seeded and cultured overnight. Culture media was replaced with DMEM containing 0.5% BCS 1 hour prior to experimentation. Cells were incubated with the peptide analogues or reagent (LPA or forskolin) diluted in DMEM containing 0.5% BCS, 30 minutes at 37° C. Cells were then fixed in 4% paraformnaldehyde, permeabilized in 0.25% Triton X-100, and blocked with 1% BSA solution for 1 hour. To determine f-actin cytoskeletal distribution, treated cells were incubated with Alexa 568 phalloidin (Molecular Probes, Eugene, Oreg.) in 1% BSA, 30 minutes. To determine focal adhesion protein localization, treated cells were incubated with primary monoclonal antibodies for α-actinin (1:100, Upstate, Charlottesville, Va.), vinculin (1:100, Sigma) or paxillin (1:100, BD Bioscience-Transduction Labs, San Jose, Calif.) in 1% BSA solution for 2 hours, rinsed in PBS and incubated 60 min with Cy3-goat IgG secondary antibody (Jackson ImmunoResearch, West Grove, Pa.). Slides were mounted and analyzed by confocal microscopy (Leica TCS SP2, Bannockburn, Ill.). […]

Assay [5] has as its system 3T3 cells. Put plainly: DNase 1 inhibition assay for monomer g-actin. It counts as cell-based. The conditions noted are these: forskolin 10 μM, 30 min, pHSP20 25 μM. On the procedure: 3T3 cells were cultured and treated as indicated on the graph (4). Monomer g-actin was biochemically quantitated using a DNase 1 inhibition assay. The level of g-actin in the cell extract that caused 50% inhibition of DNase 1 was estimated from a standard actin curve that was determined using known amounts of actin. *P<0.05 compared to untreated cells.
To confirm that the loss of stress fibers is associated with loss of filamentous (f-) actin and commensurate increases in globular (g-) actin, a DNase 1 inhibition assay was performed (5). 3T3 cells were cultured and treated as indicated (4). Monomer g-actin was biochemically quantitated using a DNase 1 inhibition assay. The level of g-actin in the cell extract that caused 50% inhibition of DNase 1 was estimated from a standard actin curve that was determined using known amounts of actin. […] Thus, transduction of pHSP20 led to similar changes in actin filament dynamics and cellular morphology, as did activation of the upstream adenylate cyclase activator forskolin.

In the case of “lysophosphatidic acid [reference compound]”, the “cell morphology and stress fibers (f-actin)” value with Swiss albino 3T3 cells [1] is given as “displayed robust stress fibers”.

Take “YGRKKRRQRRRWLRRApSAPLPGL (YGRKKRRQRRRWLRRA[pS]APLPGL) [pHSP20, phosphopeptide analogue of HSP20 with HIV Tat protein transduction domain]”: the “cell morphology and stress fibers (f-actin)” value in the assay with Swiss albino 3T3 cells [1] was “displayed stellate morphology and disrupted stress fibers”. In assay [2], the “density of axons in the vicinity of the microwire electrodes” value was “a higher density of axons was seen” and the “glial scarring around electrodes” value was “essentially no scarring was observed”. Also, the “focal adhesions (cells positive for focal adhesions)” value with 3T3 cells [3] is recorded as “led to disruption of focal adhesions”. In addition, the “focal adhesion accumulations of α-actinin, vinculin, and paxillin” value in the assay with Swiss albino 3T3 cells [4] was “displayed a decrease in focal adhesion accumulations of α-actinin, vinculin, and paxillin”. For the same substance, the “g-actin (monomer) in cell extract” value with 3T3 cells [5] (FIG. 1) was “led to increases in g-actin”. Also, in the assay on 3T3 cells [5] (FIG. 1, listed as PhosphoHSP20 peptide), the “g-actin (monomer) in cell extract” value is “disrupts the actin cytoskeleton”.
